Experimental data published in BindingDB's records for patent US20250325529 (Celloram, 2025).

Key:
Test in all cases: Binding assays for FABP3, FABP4, FABP5 and FABP7
[1] = target: Fatty acid-binding protein, adipocyte (Homo sapiens, UniProt P15090)
Description: (§1) Binding assays for FABP3, FABP4, FABP5 and FABP7 were carried out by fluorescence titrations. His-tagged FABPs were bacterially expressed in E. coli, purified using Ni Sepharose beads, and the equilibrium dissociation constants (Kd) that characterize their interactions with different inhibitor compounds were measured by fluorescence competition assays. The method entails two steps as described in e.g., Lin, Q. et al., “Ligand selectivity of the peroxisome proliferator-activated receptor alpha,” Biochemistry 38, 185-190, doi:10.1021/bi9816094 [pii](1999). In the first step, Kd for the association of the protein with the fluorescent fatty acid probe ANS was measured. Protein (2 μM) was titrated with ANS from a concentrated solution in DMSO. Ligand binding was monitored by following the increase in the fluorescence of the ligand upon binding to the protein, and Kd for the association of ANS with the each FABP was computed from titration curves as described in e.g., Norris, A. W. & Li, E., “Fluorometric titration of the CRABPs,” Methods Mol Biol 89, 123-139 (1998)). In the second step, Kds for binding of non-fluorescent ligands were measured by monitoring their ability to displace ANS in the binding pocket of the protein.

[2] = target: Fatty acid-binding protein, brain (FABP7) (Homo sapiens, UniProt O15540)
Description: as §1

[3] = target: Fatty acid-binding protein, heart (Homo sapiens, UniProt P05413)
Description: as §1

[4] = target: Fatty acid-binding protein 5 (Homo sapiens, UniProt Q01469)
Description: as §1

Sequence of Fatty acid-binding protein, brain (FABP7) (O15540 whole entry): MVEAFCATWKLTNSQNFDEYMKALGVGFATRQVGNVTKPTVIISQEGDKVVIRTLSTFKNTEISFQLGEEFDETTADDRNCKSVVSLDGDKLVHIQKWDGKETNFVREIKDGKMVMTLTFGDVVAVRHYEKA
Sequence of Fatty acid-binding protein, heart (P05413 whole entry): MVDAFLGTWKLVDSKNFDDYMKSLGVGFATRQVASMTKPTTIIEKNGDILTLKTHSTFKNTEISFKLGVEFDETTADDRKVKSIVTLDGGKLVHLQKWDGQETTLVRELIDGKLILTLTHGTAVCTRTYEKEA
Sequence of Fatty acid-binding protein, adipocyte (P15090 whole entry): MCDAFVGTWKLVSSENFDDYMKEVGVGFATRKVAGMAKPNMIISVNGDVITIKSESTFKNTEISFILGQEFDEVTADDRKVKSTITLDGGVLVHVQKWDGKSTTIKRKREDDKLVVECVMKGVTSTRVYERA
Sequence of Fatty acid-binding protein 5 (Q01469 whole entry): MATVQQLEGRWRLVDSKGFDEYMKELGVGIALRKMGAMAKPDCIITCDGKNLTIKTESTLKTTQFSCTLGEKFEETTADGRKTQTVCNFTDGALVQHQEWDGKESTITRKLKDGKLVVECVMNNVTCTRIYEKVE

Kd [1]: 14 nM
Kd [2]: 43 nM
Kd [3]: 60.8 nM
Kd [4]: 11 nM
SMILES: CC(C)Oc1nc(NC(=O)CC(C)(C)CC(=O)O)c(Cl)cc1Cl [US20250325529, ID PD154]
